# Measured values reported in US10294202B2, “Pyrrolidinones as herbicides” (FMC Corporation, priority 2013, dated 2019).
# Key:
# ryegrass, Italian = assay: Test C pre-/postemergence herbicide test; type: in vivo, Lolium multiflorum
# Outline: (§1)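 Pre-emergence: seeds sown in loam/sand blend and treated with compound in surfactant-containing solvent. Post-emergence: plants at 2–18 cm (1- to 4-leaf stage) in peat-based medium sprayed with the same formulation. Visual rating versus controls after 13–15 days in greenhouse, scale 0 (no effect) to 100 (complete control).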
# crabgrass, large = assay: Test C pre-/postemergence herbicide test; type: in vivo, Digitaria sanguinalis
# Outline: as §1
# oat, wild = assay: Test C pre-/postemergence herbicide test; type: in vivo, Avena fatua; settings: Postemergence
# Outline: as §1
# ragweed = assay: Test C pre-/postemergence herbicide test; type: in vivo, Ambrosia elatior
# Outline: as §1
# galium = assay: Test C pre-/postemergence herbicide test; type: in vivo, Galium aparine; settings: Preemergence; for Plant response rating, Galium: 125 g ai/ha; for Plant response rating (scale of 0 to 100), Galium: 250 g ai/ha
# Outline: as §1
# blackgrass = assay: Test C pre-/postemergence herbicide test; type: in vivo, Alopecurus myosuroides
# Outline: as §1
# waterhemp = assay: Test C pre-/postemergence herbicide test; type: in vivo, Amaranthus rudis
# Outline: as §1
# corn = assay: Test C pre-/postemergence herbicide test; type: in vivo, Zea mays
# Outline: as §1
# johnsongrass = assay: Test C pre-/postemergence herbicide test; type: in vivo, Sorghum halepense
# Outline: as §1
# soybean = assay: Test C pre-/postemergence herbicide test; type: in vivo, Glycine max
# Outline: as §1
# wheat = assay: Test A pre-/postemergence herbicide test; type: in vivo, Triticum aestivum; settings: Postemergence
# Outline: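 Seeds in loam–sand blend received preemergence directed soil spray; separately, plants 2–10 cm at one- to two-leaf stage received postemergence spray, both with test chemicals in non-phytotoxic solvent with surfactant. After ~10 days in greenhouse, injury rated visually against untreated controls, 0 (no effect) to 100 (complete control).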
# oilseed rape = assay: Test C pre-/postemergence herbicide test; type: in vivo, Brassica napus
# Outline: as §1
# [1] = Postemergence, 31 g ai/ha, scale 0 to 100 (0 no effect, 100 complete control)
# [2] = Postemergence, 62 g ai/ha, scale 0 (no effect) to 100 (complete control)
# [3] = Postemergence, 125 g ai/ha, scale 0 to 100 (0 no effect, 100 complete control)
# [4] = Postemergence, 250 g ai/ha, scale 0 to 100 (0 no effect, 100 complete control)
# [5] = Preemergence, 31 g ai/ha, scale 0 to 100, 0 is no effect and 100 is complete control
# [6] = Preemergence, 62 g ai/ha, scale 0 to 100 (0 no effect, 100 complete control)
# [7] = Preemergence, 125 g ai/ha, scale 0 to 100 (0 no effect, 100 complete control)
# [8] = 31 g ai/ha, scale 0 to 100 (0 no effect, 100 complete control)
# [9] = 62 g ai/ha, scale 0 (no effect) to 100 (complete control)
# [10] = 125 g ai/ha, scale 0 to 100 (0 no effect, 100 complete control)
# [11] = 250 g ai/ha, scale 0 to 100 (0 no effect, 100 complete control)
# [12] = 31 g ai/ha, scale 0 to 100, 0 is no effect and 100 is complete control
# [13] = 62 g ai/ha, scale 0 to 100 (0 no effect, 100 complete control)
# [14] = scale 0 to 100 (0 no effect, 100 complete control)
# [15] = 125 g ai/ha, visual rating on 0 to 100 scale (0 no effect, 100 complete control), approx. 10 days
# [16] = 500 g ai/ha, 0 to 100 scale (0 no effect, 100 complete control)
compound,measurement,setting,value
CN1CC(c2ccc(F)c(F)c2)C(C(=O)Nc2cccc(F)c2F)C1=O (centres unmarked) [Compound 303],"Plant response rating, Ryegrass, Italian","ryegrass, Italian; [1]",0
same,"Plant response rating, Ryegrass, Italian","ryegrass, Italian; [2]",0
same,"Plant response rating, Ryegrass, Italian","ryegrass, Italian; [3]",0
same,"Plant response rating, Ryegrass, Italian","ryegrass, Italian; [4]",5
same,"Ryegrass, Italian plant response rating","ryegrass, Italian; [5]",30
same,"Ryegrass, Italian plant response rating","ryegrass, Italian; [6]",35
same,"Plant response rating, Ryegrass, Italian","ryegrass, Italian; [7]",70
same,"Plant response rating (scale of 0 to 100), Ryegrass, Italian","ryegrass, Italian; Preemergence, 250 g ai/ha",75
same,"Plant response rating, Crabgrass, Large","crabgrass, large; [1]",0
same,"Plant response rating, Crabgrass, Large","crabgrass, large; [2]",40
same,"Plant response rating, Crabgrass, Large","crabgrass, large; [3]",65
same,"Plant response rating, Crabgrass, Large","crabgrass, large; [4]",90
same,"Crabgrass, Large plant response rating","crabgrass, large; [5]",95
same,"Crabgrass, Large plant response rating","crabgrass, large; [6]",98
same,"Plant response rating, Crabgrass, Large","crabgrass, large; [7]",98
same,"Plant response rating (scale of 0 to 100), Crabgrass, Large","crabgrass, large; Preemergence, 250 g ai/ha",100
same,"Plant response rating, Oat, Wild","oat, wild; [8]",0
same,"Plant response rating, Oat, Wild","oat, wild; [9]",0
same,"Plant response rating, Oat, Wild","oat, wild; [10]",0
same,"Plant response rating, Oat, Wild","oat, wild; [11]",0
same,"Plant response rating, Ragweed",ragweed; [1],0
same,"Plant response rating, Ragweed",ragweed; [2],0
same,"Plant response rating, Ragweed",ragweed; [3],40
same,"Plant response rating, Ragweed",ragweed; [4],55
same,Ragweed plant response rating,ragweed; [5],5
same,Ragweed plant response rating,ragweed; [6],70
same,"Plant response rating, Ragweed",ragweed; [7],75
same,"Plant response rating (scale of 0 to 100), Ragweed","ragweed; Preemergence, 250 g ai/ha",80
same,Galium plant response rating,galium; [12],90
same,Galium plant response rating,galium; [13],0
same,"Plant response rating, Galium",galium; [14],85
same,"Plant response rating (scale of 0 to 100), Galium",galium,85
same,"Plant response rating, Blackgrass",blackgrass; [1],0
same,"Plant response rating, Blackgrass",blackgrass; [2],0
same,"Plant response rating, Blackgrass",blackgrass; [3],0
same,"Plant response rating, Blackgrass",blackgrass; [4],0
same,Blackgrass plant response rating,blackgrass; [5],0
same,Blackgrass plant response rating,blackgrass; [6],40
same,"Plant response rating, Blackgrass",blackgrass; [7],80
same,"Plant response rating (scale of 0 to 100), Blackgrass","blackgrass; Preemergence, 250 g ai/ha",90
same,"Plant response rating, Waterhemp",waterhemp; [1],0
same,"Plant response rating, Waterhemp",waterhemp; [2],35
same,"Plant response rating, Waterhemp",waterhemp; [3],0
same,"Plant response rating, Waterhemp",waterhemp; [4],25
same,Waterhemp plant response rating,waterhemp; [5],40
same,Waterhemp plant response rating,waterhemp; [6],65
same,"Plant response rating, Waterhemp",waterhemp; [7],65
same,"Plant response rating (scale of 0 to 100), Waterhemp","waterhemp; Preemergence, 250 g ai/ha",75
same,"Plant response rating, Corn",corn; [1],0
same,"Plant response rating, Corn",corn; [2],0
same,"Plant response rating, Corn",corn; [3],0
same,"Plant response rating, Corn",corn; [4],15
same,Corn plant response rating,corn; [5],10
same,Corn plant response rating,corn; [6],20
same,"Plant response rating, Corn",corn; [7],35
same,"Plant response rating (scale of 0 to 100), Corn","corn; Preemergence, 250 g ai/ha",45
same,"Plant response rating, Johnsongrass",johnsongrass; [1],0
same,"Plant response rating, Johnsongrass",johnsongrass; [2],0
same,"Plant response rating, Johnsongrass",johnsongrass; [3],0
same,"Plant response rating, Johnsongrass",johnsongrass; [4],5
same,Johnsongrass plant response rating,johnsongrass; [5],0
same,Johnsongrass plant response rating,johnsongrass; [6],55
same,"Plant response rating, Johnsongrass",johnsongrass; [7],65
same,"Plant response rating (scale of 0 to 100), Johnsongrass","johnsongrass; Preemergence, 250 g ai/ha",80
same,"Plant response rating, Soybean",soybean; [1],0
same,"Plant response rating, Soybean",soybean; [2],0
same,"Plant response rating, Soybean",soybean; [3],0
same,"Plant response rating, Soybean",soybean; [4],0
same,Soybean plant response rating,soybean; [5],0
same,Soybean plant response rating,soybean; [6],0
same,"Plant response rating, Soybean",soybean; [7],0
same,"Plant response rating (scale of 0 to 100), Soybean","soybean; Preemergence, 250 g ai/ha",20
same,"Plant response rating, Wheat",wheat; [15],50
same,"Plant response rating, Wheat",wheat; [16],60
same,"Plant response rating, Oilseed Rape",oilseed rape; [1],0
same,"Plant response rating, Oilseed Rape",oilseed rape; [2],0
same,"Plant response rating, Oilseed Rape",oilseed rape; [3],0
same,"Plant response rating, Oilseed Rape",oilseed rape; [4],30
same,Oilseed Rape plant response rating,oilseed rape; [5],0
same,Oilseed Rape plant response rating,oilseed rape; [6],35
same,"Plant response rating, Oilseed Rape",oilseed rape; [7],80
same,"Plant response rating (scale of 0 to 100), Oilseed Rape","oilseed rape; Preemergence, 250 g ai/ha",85
CN1CC(c2cccc(C(F)(F)F)c2)C(C(=O)Nc2cccc(F)c2F)C1=O (centres unmarked) [Compound 305],"Plant response rating, Ryegrass, Italian","ryegrass, Italian; [1]",0
same,"Plant response rating, Ryegrass, Italian","ryegrass, Italian; [2]",0
same,"Plant response rating, Ryegrass, Italian","ryegrass, Italian; [3]",0
same,"Plant response rating, Ryegrass, Italian","ryegrass, Italian; [4]",45
same,"Ryegrass, Italian plant response rating","ryegrass, Italian; [5]",15
same,"Ryegrass, Italian plant response rating","ryegrass, Italian; [6]",50
same,"Plant response rating, Ryegrass, Italian","ryegrass, Italian; [7]",50
same,"Plant response rating (scale of 0 to 100), Ryegrass, Italian","ryegrass, Italian; Preemergence, 250 g ai/ha",80
same,"Plant response rating, Crabgrass, Large","crabgrass, large; [1]",40
same,"Plant response rating, Crabgrass, Large","crabgrass, large; [2]",55
same,"Plant response rating, Crabgrass, Large","crabgrass, large; [3]",75
same,"Plant response rating, Crabgrass, Large","crabgrass, large; [4]",80
same,"Crabgrass, Large plant response rating","crabgrass, large; [5]",95
same,"Crabgrass, Large plant response rating","crabgrass, large; [6]",95
same,"Plant response rating, Crabgrass, Large","crabgrass, large; [7]",90
same,"Plant response rating (scale of 0 to 100), Crabgrass, Large","crabgrass, large; Preemergence, 250 g ai/ha",95
same,"Plant response rating, Oat, Wild","oat, wild; [8]",0
same,"Plant response rating, Oat, Wild","oat, wild; [9]",0
same,"Plant response rating, Oat, Wild","oat, wild; [10]",0
same,"Plant response rating, Oat, Wild","oat, wild; [11]",30
same,"Plant response rating, Ragweed",ragweed; [1],0
same,"Plant response rating, Ragweed",ragweed; [2],0
same,"Plant response rating, Ragweed",ragweed; [3],40
same,"Plant response rating, Ragweed",ragweed; [4],45
same,Ragweed plant response rating,ragweed; [5],0
same,Ragweed plant response rating,ragweed; [6],15
same,"Plant response rating, Ragweed",ragweed; [7],35
same,"Plant response rating (scale of 0 to 100), Ragweed","ragweed; Preemergence, 250 g ai/ha",75
same,Galium plant response rating,galium; [12],80
same,Galium plant response rating,galium; [13],80
same,"Plant response rating, Galium",galium; [14],90
same,"Plant response rating (scale of 0 to 100), Galium",galium,90
same,"Plant response rating, Blackgrass",blackgrass; [1],0
same,"Plant response rating, Blackgrass",blackgrass; [2],0
same,"Plant response rating, Blackgrass",blackgrass; [3],30
same,"Plant response rating, Blackgrass",blackgrass; [4],10
same,Blackgrass plant response rating,blackgrass; [5],60
same,Blackgrass plant response rating,blackgrass; [6],75
same,"Plant response rating, Blackgrass",blackgrass; [7],70
same,"Plant response rating (scale of 0 to 100), Blackgrass","blackgrass; Preemergence, 250 g ai/ha",90
same,"Plant response rating, Waterhemp",waterhemp; [1],10
same,"Plant response rating, Waterhemp",waterhemp; [2],10
same,"Plant response rating, Waterhemp",waterhemp; [3],35
same,"Plant response rating, Waterhemp",waterhemp; [4],40
same,Waterhemp plant response rating,waterhemp; [5],40
same,Waterhemp plant response rating,waterhemp; [6],65
same,"Plant response rating, Waterhemp",waterhemp; [7],80
same,"Plant response rating (scale of 0 to 100), Waterhemp","waterhemp; Preemergence, 250 g ai/ha",80
same,"Plant response rating, Corn",corn; [1],0
same,"Plant response rating, Corn",corn; [2],5
same,"Plant response rating, Corn",corn; [3],40
same,"Plant response rating, Corn",corn; [4],45
same,Corn plant response rating,corn; [5],65
same,Corn plant response rating,corn; [6],75
same,"Plant response rating, Corn",corn; [7],75
same,"Plant response rating (scale of 0 to 100), Corn","corn; Preemergence, 250 g ai/ha",80
same,"Plant response rating, Johnsongrass",johnsongrass; [1],0
same,"Plant response rating, Johnsongrass",johnsongrass; [2],0
same,"Plant response rating, Johnsongrass",johnsongrass; [3],20
same,"Plant response rating, Johnsongrass",johnsongrass; [4],20
same,Johnsongrass plant response rating,johnsongrass; [5],80
same,Johnsongrass plant response rating,johnsongrass; [6],85
same,"Plant response rating, Johnsongrass",johnsongrass; [7],90
same,"Plant response rating (scale of 0 to 100), Johnsongrass","johnsongrass; Preemergence, 250 g ai/ha",90
same,"Plant response rating, Soybean",soybean; [1],10
same,"Plant response rating, Soybean",soybean; [2],0
same,"Plant response rating, Soybean",soybean; [3],0
same,"Plant response rating, Soybean",soybean; [4],0
same,Soybean plant response rating,soybean; [5],0
same,Soybean plant response rating,soybean; [6],0
same,"Plant response rating, Soybean",soybean; [7],0
same,"Plant response rating (scale of 0 to 100), Soybean","soybean; Preemergence, 250 g ai/ha",0
same,"Plant response rating, Wheat",wheat; [15],60
same,"Plant response rating, Wheat",wheat; [16],70
same,"Plant response rating, Oilseed Rape",oilseed rape; [1],0
same,"Plant response rating, Oilseed Rape",oilseed rape; [2],0
same,"Plant response rating, Oilseed Rape",oilseed rape; [3],0
same,"Plant response rating, Oilseed Rape",oilseed rape; [4],0
same,Oilseed Rape plant response rating,oilseed rape; [5],20
same,Oilseed Rape plant response rating,oilseed rape; [6],60
same,"Plant response rating, Oilseed Rape",oilseed rape; [7],80
same,"Plant response rating (scale of 0 to 100), Oilseed Rape","oilseed rape; Preemergence, 250 g ai/ha",90
